Reference: a melting point compilation (Tetko et al.; mined from patent text by program, amines drawn as free bases though some values may be those of a salt)

Row | Structure (SMILES) | melting point [°C]
1 | COc1cc(-n2cnc(C)c2C)cc2oc(=O)c(C)c(C)c12 | 196 to 198
2 | CC(=O)NC[C@H]1CN(c2ccc(N3CCC(n4nnnc4N)CC3)c(F)c2)C(=O)O1 | 174 to 176
3 | COc1cc(OC)c2c(=O)[nH]c(-c3cc(C)c(OCCN4CCCCCC4)c(C)c3)nc2c1 | 198 to 199
4 | C=CCOCCOC(=O)c1cc(-n2c(OC)nc(C(F)(F)F)cc2=O)c(F)cc1Cl | 74 to 77
5 | COc1cc(Cn2cnc3cccnc32)ccc1C(=O)N(C1CCCC1)C1CC(C)CC(C)C1 (centres undefined) | 80 to 82
6 | COc1ccc(C=C(C#N)C=O)cc1OC | 157 to 158
7 | CCOC(=O)c1cn(-c2cc([N+](=O)[O-])c(F)cc2F)c2cc(F)c(F)cc2c1=O | 165 to 173
8 | NC(=O)Nc1nc2n(n1)CCc1ccccc1-2 | 210 to 212
9 | COc1ccccc1P(CCCP(c1ccccc1OC)c1ccccc1OC)c1ccccc1OC | 149 to 150
10 | CC(=O)n1c(SC(F)(F)F)cc(-c2ccc(F)cc2)c1-c1ccc(F)cc1 | 75 to 76
11 | CN1C(=O)CC2(c3ccccc3)CCCC3OC32C1=O (centres undefined) | 135 to 140
12 | Cc1cc(C)c(C2=C(OC(=O)C(C)(C)C)CC(CC3CCOC3)CC2=O)c(C)c1 (centres undefined) | 108 to 110
13 | N#CC1CC(C#N)(c2ccc(OC(F)F)c(OCC3CC3)c2)CCC1=O (centres undefined) | 142 to 143
14 | CCSc1nc(N2CCNCC2)nc2cccnc12 | 98 to 101
15 | CCCCNC(=O)NS(=O)(=O)c1ccccc1-c1nn(C)c(=O)o1 | 110 to 115
16 | C#Cc1ccc(C#C)cc1 | 91 to 92
17 | CCCCN(C)C(=O)OCCCc1ccc(OCCOC)cc1Oc1ncc(C(F)(F)F)cc1Cl | 54 to 55.2
18 | CN(C)CCCC(C(N)=O)c1ccccc1-c1ccccc1 (centres undefined) | 108 to 110

Row | Structure (SMILES) | melting point [°C]
19 | COC(=O)NC(=O)Cc1nc(-c2cc(C(C)(C)C)c(O)c(C(C)(C)C)c2)oc1C | 125 to 127
20 | COc1cc2nc(N3CCN(c4ccnc(Oc5ccccc5)n4)CC3)nc(N)c2cc1OC | 253 to 254
21 | CCN1CN(c2cccc(C(F)(F)F)c2)c2ncccc2C1=O | 108 to 109
22 | COc1cc(Nc2c(C#N)cnc3cc4cc(OCCn5nccn5)c(OC)cc4cc23)c(Cl)cc1Cl | 285 to 287
23 | CC(=O)NC1(c2ccc(CN3CCN(c4nccs4)CC3)cc2)CC1 | 184 to 185
24 | CCCCOc1ccc(C=C2C(=O)C3(C)CCC2C3(C)C)cc1 (centres undefined) | 62
25 | O=Cc1ccc(-c2ccc(O)cc2)c2ccsc12 | 203 to 204
26 | CC1(C)CCC(C)(C)c2cc(-c3c[nH]c(C=O)c3)ccc21 | 211 to 212
27 | CCOC(=O)N1CCC(N)(CC#N)CC1 | 68 to 69
28 | COc1ccc2cc(C(=O)NC3N=C(c4ccccc4)c4ccccc4-n4c(C)nnc43)[nH]c2c1 (centres undefined) | 160 to 170
29 | O=C1NC(c2ccccc2)N(CCN2CCN(c3ccccc3)CC2)c2ccccc21 (centres undefined) | 142 to 144
30 | Cc1cc(C)c2c(c1)nc(N(CCN1CCOCC1)C1CCNCC1)n2Cc1nc(C)ccc1O | 226
31 | CCC1CC2=CC(O)CCC2C2CCC3(C)C(O)CCC3C12 (centres undefined) | 93 to 95
32 | CCOC(=O)c1cc(OC2CCCCC2=O)[nH]n1 (centres undefined) | 122 to 124
33 | Nc1ccc(CCN2CCC(Nc3nc4ccccc4n3Cc3ccc(F)cc3)CC2)cc1 | 195
34 | CC1(C)CNc2cc(C(F)(F)F)ccc2C1=O | 121 to 122
35 | CCc1nc2ncnn2c(N)c1CCc1ccccc1 | 210 to 211
36 | CN(c1cc2c3c(c1)CCCC3(C)CCC2)c1ncc(C(=O)O)cn1 | > 300

Further lines, results first:

Row | melting point [°C] | Structure (SMILES)
37 | 188 to 193 | COC(=O)c1ccc(Cn2nc(OC)c3ccc(N)cc32)c(OC)c1
38 | 254 to 256 | c1ccc(CN2CCN(c3n[nH]c4c3CCc3ccccc3-4)CC2)cc1
39 | 205 to 207 | OC1(CNc2ccnc3cc(Cl)ccc23)CCCCC1
40 | 138 | Cn1c(Sc2ccc(C(=O)OCC(C)(C)C)c(Cl)c2)n[nH]c1=O
41 | 118 | CCCCCCCNC(=O)Nc1ccccc1C(=O)Nc1ccccn1
42 | 118 | Cc1c(NC(=O)c2ccc(OC[C@@H]3CCCO3)cc2F)ccc2c1cc(CNCC(C)(C)O)n2C
43 | 276 to 277 | COc1cccc(-c2cn(-c3ccc(C(=O)O)cc3)nn2)c1
44 | > 250 | CC(=O)Nc1ccc2c(O)c(C(=O)NCc3ccc(Cl)cc3)cnc2c1
45 | 137 | Cc1cc(C(C)(CC(=O)c2ccccc2)c2ccccc2)ccc1O (centres undefined)
46 | 90 to 92.5 | O=S(=O)(c1ccccc1)N1CCC(=C(c2ccc(F)cc2)c2ccc(F)cc2)CC1
47 | 104 to 106 | CCOC(=O)c1c(-c2ccc(OC)c(OC)c2)c2cc(Cl)ccc2n(C)c1=O
48 | 182 to 183 | CC1(C)OC(=O)Nc2ccc(-c3cc(F)cc(Br)c3)cc21
49 | 218 to 219 | O=C(O)Cc1nc(-c2ccc(Cl)cc2)oc1-c1ccoc1
50 | 113 to 117 | CCOC(=O)c1cc(SC(F)F)c(-c2ccc(Cl)cc2)[nH]1
51 | 167 to 169 | Cc1ccc(CCc2ccccc2Br)c(NC=O)c1
52 | 97 to 99 | C[C@@H]1[C@@H](C(=O)Cc2ccccc2)C(=O)N1OCc1ccccc1
53 | 81 to 85 | CCOC(=O)C1=C(C)NC(C)=C(C(=O)OCCN2CCC(C(c3ccccc3)c3ccccc3)CC2)C1c1cccc(Cl)c1Cl (centres undefined)

Row | melting point [°C] | Structure (SMILES)
54 | 279 to 283 | O=C(CCNc1c(C(=O)O)[nH]c2cc(Cl)cc(Cl)c12)c1ccc(Cl)cc1
55 | 205 to 208 | O=C1NCN2c3ccc([N+](=O)[O-])cc3Sc3cccc1c32
56 | 120 | CC(CN1CCCC1)N1c2ccccc2Sc2ccc(C(=O)NCC3CCCCC3)cc21 (racemic)
57 | 210 to 213 | COc1cc2c(cc1C(F)(F)F)N(C(=O)Nc1ccc(Cl)c(-c3cccnc3)c1)CC2
58 | 137 to 138 | CCn1nc(C(=O)OCc2ccccc2)cc(Nc2cnccc2C)c1=O
59 | 162 to 164 | C=CCn1cc(C(=O)OCC)c(=O)c2cc(F)c(Cl)cc21
60 | 123 | Cc1cc(C)cc(COC(=O)C(NC(=O)OC(C)(C)C)C(c2ccccc2)c2ccccc2)c1 (centres undefined)
61 | 133 to 134 | O=c1c(-c2ccccc2)ccc2n1CCc1ccsc1-2
62 | 232 to 233 | CC(=O)Nc1ccc(S(=O)(=O)NCC(O)(Cn2cncn2)c2ccc(Cl)cc2Cl)cc1 (centres undefined)
63 | 107 to 110 | ClCc1ccc2cc(Cl)ccc2c1
64 | 120 to 123 | CCOC(=O)c1cnc2c(NC(=O)c3c(Cl)cccc3Cl)cccc2c1CSc1ncc[nH]1
65 | 90 to 94 | COC(=O)c1ccc(Cn2c(=O)c3c(N4CCN(C)CC4)cc(Cl)cc3n(Cc3ccccc3)c2=O)cc1
66 | 122 to 123 | CCOc1nn(Cc2ccc(OCc3nc(-c4ccccc4)oc3C)c(OC)c2)cc1CCC(=O)O
67 | 113 to 115 | CCCC(=O)c1cnc2c(C(=O)OC)cccc2c1Nc1ccccc1C
68 | 93 to 95 | CCOC(=O)C1=C(C)NC(=S)N(C(=O)OCC)C1c1cccc(C)c1 (centres undefined)
69 | 170 to 171 | CN(Cc1cc(C(F)(F)F)cc(C(F)(F)F)c1)C(=O)c1oc(=O)c2ccc(Cl)cc2c1-c1ccccc1
